In patent US20020019356A1, “HYPERBARIC OXIGENATION (HBO) AS THE METHOD FOR ENHANCEMENT EFFICIENCY OF ANTI-HIV SUBSTANCES IN INHIBITION THE HUMAN IMMUNODEFICIENCY VIRUS (HIV) REPRODUCTION AND REDUCTION OF THE CYTOTOXIC EFFECT OF THOSE SUBSTANCES AS WELL” (priority 1998, published 2002):

Tests used:
Supt1 cells = experiment: Viability of Supt1 cells with different AZT concentrations, with or without HBO (MTT-test); format: cell-based, human
From the text: 4.) Monitoring the viability by means of direct cell calculation in a Goryaev counting chamber after colouring with the excepting vital stain 0.2% trypan blue. For the direct comparison of the amounts of living cells there is used the so-called MTT-method, which is based on the capability of living cells to reduce the yellow water-soluble tetrazole salt MTT (3-(4,5)-dimethylthiazol-2-ye)-2,5-diphenyl-bromide tetrazole) into insoluble intracellular MTT-formazan crystals, whereas dead cells are not capable to do this.
A concentrated MTT solution of 10 mg/ml is prepared with a phosphate buffer solution at pH 7.4 and brought into a hollow with the cells at a 10-fold dilution rate.
After incubation over 4 hours at 37° C. the supernatant is isolated with help of microdosing tips of a special design (S-tips).
Into the hollow is added […] of DMSO as solvent. The thereupon measurable optical density is within 540 to 590 nm, i.e. in the absorption range of formazan, is direct proportional to the quantity of living cells.
(§1) 18 million Supt1 cells in 60 ml of the growth medium RPMI-1640 with 10% fetal calf serum, 2 mM L-glutamine and […] genthamycin were placed in each of 2 plastic flasks (75 cm^3), mark Costar®, USA, one of which was subjected to HBO (Ox+), and the other was used for counterchecks with intact and infected cells without a HBO exposure (Ox−).
(§2) The HBO [6] was carried out in the oxygenous pressure chamber BLKS-303M. The pressure chamber was sealed, blown out with oxygen over 7 min till an oxygen concentration of 98-100% was obtained at the outlet of the pressure chamber, whereupon the oxygen pressure in said pressure chamber was increased up to 1.5 ate. The compression rate was 1,077 ate/min and the time period of isocompression was 40 min. After having finished the HBO process, the oxygen pressure was decreased to atmospheric during 6 min.
(§3) Over 40 min after a finish of the HBO—procedure in the each well of the 24-wells plate (Nuclon®, Denmark) added 45 μL of a cell suspension (3×10^5 cell/mL) and 50 μL of a growth substance with a different concentrations of AZT.
(§4) After an incubation over two hours with the virus-containing inoculum at 37° C., the cells were there-fold washed off from residual virus by centrifugation with 300 g over 10 min in the 30-fold volume of the medium and in every well of 24-wells plate were added […] of the growth medium with corresponding AZT-concentration.
The mixed samples were cultivated in a thermostat at 37° C., 5% CO2 and 80% moisture content. […]
The monitoring results of viability of oxygenated and not-oxygenated cells Supt1, inoculated HIV-1BRU with different AZT-concentrations, are shown in Table 1.

HIV-1BRU = experiment: Viral antigen content (polyclonal EIA) in supernatant of Supt1 culture infected with HIV-1BRU, with or without HBO; format: cell-based, Human Immunodeficiency Virus; parameters: unit not given here; conditions: Supt1/HIV-1BRU
Protocol: 1.) Determination of the total level of viral antigen expression by means of the method of polyclonal immunoenzyme analysis (EIA) [ABBOTT™ ELISA Kit]. […]
as §1, §2, §3
(§5) After an incubation over 2 hours at 37° C. an oxygenated and non-oxygenated samples were infected with HIV-1BRU (non-resistant to AZT) and HIV-1A216 (resistant to AZT),
(§6) After having centrifuged 24-wells plate at 300 g over 10 min, supernatant was taken out the wells by S-tips (besides […] of a cell's sediment), to which was added […] of the virus-containing supernatant of 480 TCID50.
as §4
(§7) The mixed samples were cultivated in a thermostat at 37° C., 5% CO2 and 80% moisture content.
The experimental procedure was identically with that described in Example 1, except that there were monitored HIV-BRU antigen expression by the method of polyclonal EIA.

HIV-1A216 = experiment: Viral antigen content (polyclonal EIA) in supernatant of Supt1 culture infected with AZT-resistant HIV-1A216, with or without HBO; format: cell-based, Human Immunodeficiency Virus; conditions: Supt1/HIV-1A216
Protocol: 1.) Determination of the total level of viral antigen expression by means of the method of polyclonal immunoenzyme analysis (EIA) [ABBOTT™ ELISA Kit].
The values of 50 per cent effective AZT dose (ED50) were calculated conformably to oxidised and non-oxidised cells subsequently infected by HIV and treated by AZT in various concentrations.
ED50 values were derived according to the linear regression resulting averaged values of the optical density signal V(%) depending on the logarithm of AZT doses (10^−6; 10^−7; . . . 10^−12 M).[8]
Regression lines are determined with the following formula: […]
where <> and <> are regression coefficients, calculated by mean square root method.
as §1, §2, §3, §5, §6, §4, §7
The experimental procedure was identically with that described in Example 1, except that there were monitored HIV-1A216 antigen expression by the method of polyclonal EIA.

[1] = AZT 10^−11 M, day 3 after infection, OX+
[2] = AZT 10^−11 M, day 3 after infection, OX−

## Cc1cn([C@H]2C[C@H](N=[N+]=[N-])[C@@H](CO)O2)c(=O)[nH]c1=O [AZT, 3-azido-2,3-didezoxythimidim]
Supt1 cells; AZT 10^−3 M, day 2 after AZT addition, HBO+
  viability of the cell culture Supt1 (MTT-test): 52.3 per cents
Supt1 cells; AZT 10^−3 M, day 2 after AZT addition, HBO−
  viability of the cell culture Supt1 (MTT-test): 45.3 per cents
Supt1 cells; AZT 10^−3 M, day 3 after AZT addition, HBO+
  viability of the cell culture Supt1 (MTT-test): 55.6 per cents
Supt1 cells; AZT 10^−3 M, day 3 after AZT addition, HBO−
  viability of the cell culture Supt1 (MTT-test): 51.1 per cents
Supt1 cells; AZT 10^−3 M, day 5 after AZT addition, HBO+
  viability of the cell culture Supt1 (MTT-test): 35.0 per cents
Supt1 cells; AZT 10^−3 M, day 5 after AZT addition, HBO−
  viability of the cell culture Supt1 (MTT-test): 25.3 per cents
Supt1 cells; AZT 10^−4 M, day 2 after AZT addition, HBO+
  viability of the cell culture Supt1 (MTT-test): 65.2 per cents
Supt1 cells; AZT 10^−4 M, day 2 after AZT addition, HBO−
  viability of the cell culture Supt1 (MTT-test): 63.1 per cents
Supt1 cells; AZT 10^−4 M, day 3 after AZT addition, HBO+
  viability of the cell culture Supt1 (MTT-test): 73.6 per cents
Supt1 cells; AZT 10^−4 M, day 3 after AZT addition, HBO−
  viability of the cell culture Supt1 (MTT-test): 50.5 per cents
Supt1 cells; AZT 10^−4 M, day 5 after AZT addition, HBO+
  viability of the cell culture Supt1 (MTT-test): 61.1 per cents
Supt1 cells; AZT 10^−4 M, day 5 after AZT addition, HBO−
  viability of the cell culture Supt1 (MTT-test): 55.1 per cents
Supt1 cells; AZT 10^−5 M, day 2 after AZT addition, HBO+
  viability of the cell culture Supt1 (MTT-test): 79.3 per cents
Supt1 cells; AZT 10^−5 M, day 2 after AZT addition, HBO−
  viability of the cell culture Supt1 (MTT-test): 72.3 per cents
Supt1 cells; AZT 10^−5 M, day 3 after AZT addition, HBO+
  viability of the cell culture Supt1 (MTT-test): 85.4 per cents
Supt1 cells; AZT 10^−5 M, day 3 after AZT addition, HBO−
  viability of the cell culture Supt1 (MTT-test): 70.0 per cents
Supt1 cells; AZT 10^−5 M, day 5 after AZT addition, HBO+
  viability of the cell culture Supt1 (MTT-test): 80.5 per cents
Supt1 cells; AZT 10^−5 M, day 5 after AZT addition, HBO−
  viability of the cell culture Supt1 (MTT-test): 71.9 per cents
Supt1 cells; AZT 10^−6 M, day 2 after AZT addition, HBO+
  viability of the cell culture Supt1 (MTT-test): 89.3 per cents
Supt1 cells; AZT 10^−6 M, day 2 after AZT addition, HBO−
  viability of the cell culture Supt1 (MTT-test): 52.7 per cents
Supt1 cells; AZT 10^−6 M, day 3 after AZT addition, HBO+
  viability of the cell culture Supt1 (MTT-test): 96.0 per cents
Supt1 cells; AZT 10^−6 M, day 3 after AZT addition, HBO−
  viability of the cell culture Supt1 (MTT-test): 80.2 per cents
Supt1 cells; AZT 10^−6 M, day 5 after AZT addition, HBO+
  viability of the cell culture Supt1 (MTT-test): 87.8 per cents
Supt1 cells; AZT 10^−6 M, day 5 after AZT addition, HBO−
  viability of the cell culture Supt1 (MTT-test): 73.0 per cents
Supt1 cells; AZT 10^−7 M, day 2 after AZT addition, HBO+
  viability of the cell culture Supt1 (MTT-test): 93.0 per cents
Supt1 cells; AZT 10^−7 M, day 2 after AZT addition, HBO−
  viability of the cell culture Supt1 (MTT-test): 53.8 per cents
Supt1 cells; AZT 10^−7 M, day 3 after AZT addition, HBO+
  viability of the cell culture Supt1 (MTT-test): 95.2 per cents
Supt1 cells; AZT 10^−7 M, day 3 after AZT addition, HBO−
  viability of the cell culture Supt1 (MTT-test): 114.1 per cents
Supt1 cells; AZT 10^−7 M, day 5 after AZT addition, HBO+
  viability of the cell culture Supt1 (MTT-test): 92.0 per cents
Supt1 cells; AZT 10^−7 M, day 5 after AZT addition, HBO−
  viability of the cell culture Supt1 (MTT-test): 79.2 per cents
Supt1 cells; AZT 10^−8 M, day 2 after AZT addition, HBO+
  viability of the cell culture Supt1 (MTT-test): 107.8 per cents
Supt1 cells; AZT 10^−8 M, day 2 after AZT addition, HBO−
  viability of the cell culture Supt1 (MTT-test): 100.6 per cents
Supt1 cells; AZT 10^−8 M, day 3 after AZT addition, HBO+
  viability of the cell culture Supt1 (MTT-test): 100.9 per cents
Supt1 cells; AZT 10^−8 M, day 3 after AZT addition, HBO−
  viability of the cell culture Supt1 (MTT-test): 118.3 per cents
Supt1 cells; AZT 10^−8 M, day 5 after AZT addition, HBO+
  viability of the cell culture Supt1 (MTT-test): 85.6 per cents
Supt1 cells; AZT 10^−8 M, day 5 after AZT addition, HBO−
  viability of the cell culture Supt1 (MTT-test): 85.9 per cents
Supt1 cells; AZT 10^−9 M, day 2 after AZT addition, HBO+
  viability of the cell culture Supt1 (MTT-test): 98.3 per cents
Supt1 cells; AZT 10^−9 M, day 2 after AZT addition, HBO−
  viability of the cell culture Supt1 (MTT-test): 95.2 per cents
Supt1 cells; AZT 10^−9 M, day 3 after AZT addition, HBO+
  viability of the cell culture Supt1 (MTT-test): 102.1 per cents
Supt1 cells; AZT 10^−9 M, day 3 after AZT addition, HBO−
  viability of the cell culture Supt1 (MTT-test): 98.6 per cents
Supt1 cells; AZT 10^−9 M, day 5 after AZT addition, HBO+
  viability of the cell culture Supt1 (MTT-test): 97.3 per cents
Supt1 cells; AZT 10^−9 M, day 5 after AZT addition, HBO−
  viability of the cell culture Supt1 (MTT-test): 80.1 per cents
HIV-1BRU; AZT 10^−7 M, day 3 after infection, OX+
  Content of viral antigen in supernatant: 8.8
HIV-1BRU; AZT 10^−7 M, day 3 after infection, OX−
  Content of viral antigen in supernatant: 8.0
HIV-1BRU; AZT 10^−7 M, day 5 after infection, OX+
  Content of viral antigen in supernatant: 9.9
HIV-1BRU; AZT 10^−7 M, day 5 after infection, OX−
  Content of viral antigen in supernatant: 50.2
HIV-1BRU; AZT 10^−9 M, day 3 after infection, OX+
  Content of viral antigen in supernatant: 7.4
HIV-1BRU; AZT 10^−9 M, day 3 after infection, OX−
  Content of viral antigen in supernatant: 14.5
HIV-1BRU; AZT 10^−9 M, day 5 after infection, OX+
  Content of viral antigen in supernatant: 21.5
HIV-1BRU; AZT 10^−9 M, day 5 after infection, OX−
  Content of viral antigen in supernatant: 82.3
HIV-1BRU; [1]
  Content of viral antigen in supernatant: 8.7
HIV-1BRU; [2]
  Content of viral antigen in supernatant: 14.4
HIV-1BRU; AZT 10^−11 M, day 5 after infection, OX+
  Content of viral antigen in supernatant: 62.0
HIV-1BRU; AZT 10^−11 M, day 5 after infection, OX−
  Content of viral antigen in supernatant: 83.4
HIV-1A216; AZT 10^−6 M, day 2 after infection, OX+
  Content of viral antigen in supernatant: 20.5
HIV-1A216; AZT 10^−6 M, day 2 after infection, OX−
  Content of viral antigen in supernatant: 21.8
HIV-1A216; AZT 10^−6 M, day 3 after infection, OX+
  Content of viral antigen in supernatant: 33.3
HIV-1A216; AZT 10^−6 M, day 3 after infection, OX−
  Content of viral antigen in supernatant: 51.1
HIV-1A216; AZT 10^−8 M, day 2 after infection, OX+
  Content of viral antigen in supernatant: 29.3
HIV-1A216; AZT 10^−8 M, day 2 after infection, OX−
  Content of viral antigen in supernatant: 33.1
HIV-1A216; AZT 10^−8 M, day 3 after infection, OX+
  Content of viral antigen in supernatant: 51.8
HIV-1A216; AZT 10^−8 M, day 3 after infection, OX−
  Content of viral antigen in supernatant: 70.7
HIV-1A216; AZT 10^−11 M, day 2 after infection, OX+
  Content of viral antigen in supernatant: 29.6
HIV-1A216; AZT 10^−11 M, day 2 after infection, OX−
  Content of viral antigen in supernatant: 48.2
HIV-1A216; [1]
  Content of viral antigen in supernatant: 44.5
HIV-1A216; [2]
  Content of viral antigen in supernatant: 92.1
